Reference: article PMC9243000 (Cell Discovery, 2022)
Positions of bridges follow the written chain, without caps; N, C: chain ends. Chains are numbered I, II in the order given. No end group written: not given here.

Legend:
[1] = test system: SARS-CoV-2 (B.1.1.63, D614G); type: cell-based
[2] = test system: Omicron variant (B.1.1.529); test: Post-exposure antiviral assay in hamsters, Omicron; type: in vivo
[3] = test system: SARS-CoV-2 Alpha variant; details: 18 h
[4] = test system: SARS-CoV-2 Beta variant; details: 18 h
[5] = test system: SARS-CoV-2 Delta variant; details: 18 h

Substance: I: GAICHPVFCPRRYKQIGTCGLPGTKCCKKPKK / II: GAICHPVFCPRRYKQIGTCGLPGTKCCKKPK / III: GAICHPVFCPRRYKQIGTCGLPGTKCCKKP / IV: GAICHPVFCPRRYKQIGTCGLPGTKCCKKP (amide I:31-IV:C, I:32-II:C, II:31-III:C; cysteines drawn unpaired) [4H30]
- inhibition of SARS-CoV-2 replication when added at 6 hpi [1]: significantly inhibit
- Omicron variant titers in the nasal wash ([2]; […], plaque assay, n = 4): significantly reduce
- inhibition of Omicron replication in hamster lungs ([2]; hamster, in vivo): more than 20 fold
- IC50 [3]: 0.75 µg/mL
- IC50 [4]: 0.89 µg/mL
- IC50 [5]: 0.79 µg/mL
